Measured values published in patent publication US20090253669A1, “Substituted Sulfonamide Compounds” (GRUENENTHAL GmbH, priority 2008, published 2009).
Read-outs that look alike come from different tables or passages of the source.

Assays:
[1] = biological target: T1, human B1R receptor (hB1R) (Homo sapiens, UniProt P46663); experiment: FLIPR Ca2+ assay on hB1R-transfected CHO K1 cells, antagonistic action; format: cell-based
T1 construct: host or cells: CHO K1 cells
T1 sequence (P46663 1-353): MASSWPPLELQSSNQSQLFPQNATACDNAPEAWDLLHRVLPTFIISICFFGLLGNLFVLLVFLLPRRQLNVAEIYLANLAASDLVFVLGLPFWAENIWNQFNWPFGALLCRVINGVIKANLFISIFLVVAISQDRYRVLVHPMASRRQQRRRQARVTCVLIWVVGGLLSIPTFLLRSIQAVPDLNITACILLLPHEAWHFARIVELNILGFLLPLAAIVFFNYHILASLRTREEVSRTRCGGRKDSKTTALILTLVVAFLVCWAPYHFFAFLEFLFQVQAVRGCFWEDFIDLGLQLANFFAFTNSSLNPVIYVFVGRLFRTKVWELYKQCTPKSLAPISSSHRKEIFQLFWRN

[2] = biological target: T2, B1R receptor of the rat (rB1R) (Rattus norvegicus, UniProt P97583); experiment: FLIPR Ca2+ assay on rB1R-transfected CHO K1 cells, antagonistic action; format: cell-based
T2 construct: host or cells: CHO K1 cells
T2 sequence (P97583 1-337): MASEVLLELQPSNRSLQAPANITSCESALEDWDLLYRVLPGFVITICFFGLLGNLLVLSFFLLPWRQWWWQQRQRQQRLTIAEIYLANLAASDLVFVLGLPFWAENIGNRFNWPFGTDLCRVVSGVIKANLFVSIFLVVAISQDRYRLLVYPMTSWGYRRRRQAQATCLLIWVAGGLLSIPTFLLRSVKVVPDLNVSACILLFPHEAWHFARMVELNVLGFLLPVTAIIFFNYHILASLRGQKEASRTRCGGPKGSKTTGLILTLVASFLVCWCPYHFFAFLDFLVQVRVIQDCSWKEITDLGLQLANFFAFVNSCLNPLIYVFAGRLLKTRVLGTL

[3] = CHO-K1, 10 μM test substance, agonist Lys-Des-Arg9-bradykinin 0.5 nM, % of maximum achievable inhibition, read-out: hB1R [10 μM] % inhibition
[4] = CHO-K1, 10 μM test substance, agonist Des-Arg9-bradykinin 100 nM, % of maximum achievable inhibition, read-out: rB1R [10 μM] % inhibition
[5] = CHO-K1, read-out: hB1R [10 μM] % inhibition
[6] = CHO-K1, read-out: rB1R [10 μM] % inhibition

SMILES | inhibition at 10 µM [1, 3] [%] | inhibition at 10 µM [2, 4] [%] | inhibition at 10 µM [1, 5] [%] | inhibition at 10 µM [2, 6] [%]
COc1cc(C)c(S(=O)(=O)N(C)CCOCC(=O)N(C)CCC2CCC(c3cccnc3)(N(C)C)CC2)c(C)c1 (stereo not drawn) [Compound 207, N-(2-(4-(Dimethylamino)-4-(pyridin-3-yl)cyclohexyl)ethyl)-2-(2-(4-methoxy-N,2,6-trimethylphenylsulfonamido)ethoxy)-N-methylacetamide] | 100 | 101 | – | –
COc1cc(C)c(S(=O)(=O)N(C)CCOCC(=O)N2CCC(c3cccnc3)(N(C)C)CC2)c(C)c1 [Compound 208, N-(2-(2-(4-(Dimethylamino)-4-(pyridin-3-yl)piperidin-1-yl)-2-oxoethoxy)ethyl)-4-methoxy-N,2,6-trimethylbenzenesulfonamide] | 100 | 102 | – | –
CNC1(c2ccncc2)CCN(C(=O)COCCN(C)S(=O)(=O)c2c(C)cc(OC)cc2C)CC1 [Compound 209, 4-Methoxy-N,2,6-trimethyl-N-(2-(2-(4-(methylamino)-4-(pyridin-4-yl)piperidin-1-yl)-2-oxoethoxy)ethyl)benzenesulfonamide] | – | – | 100 | 99
COc1cc(C)c(S(=O)(=O)N(C)CCOCC(=O)N2CCC(c3cccc(F)c3)(N3CCN(C)CC3)CC2)c(C)c1 [Compound 210, N-(2-(2-(4-(3-Fluorophenyl)-4-(4-methylpiperazin-1-yl)piperidin-1-yl)-2-oxoethoxy)ethyl)-4-methoxy-N,2,6-trimethylbenzenesulfonamide] | 100 | 101 | – | –
COc1cc(C)c(S(=O)(=O)N2CCCCC2COCC(=O)N2CCC(c3cccc(F)c3)(N3CCN(C)CC3)CC2)c(C)c1 (stereo not drawn) [Compound 211, 1-(4-(3-Fluorophenyl)-4-(4-methylpiperazin-1-yl)piperidin-1-yl)-2-((1-(4-methoxy-2,6-dimethylphenylsulfonyl)piperidin-2-yl)methoxy)ethanone] | 100 | 101 | – | –
Cc1cccc(Cl)c1S(=O)(=O)N1CCCCC1CCCC(=O)N1CCC(c2cccc(F)c2)(N2CCN(C)CC2)CC1 (stereo not drawn) [Compound 212, 4-(1-(2-Chloro-6-methylphenylsulfonyl)piperidin-2-yl)-1-(4-(3-fluorophenyl)-4-(4-methylpiperazin-1-yl)piperidin-1-yl)butan-1-one] | 100 | 100 | – | –
CN1CCN(C2(c3cccc(F)c3)CCN(C(=O)CCCC3CCCCN3S(=O)(=O)c3ccccc3C(F)(F)F)CC2)CC1 (stereo not drawn) [Compound 213, 1-(4-(3-Fluorophenyl)-4-(4-methylpiperazin-1-yl)piperidin-1-yl)-4-(1-(2-(trifluoromethyl)phenylsulfonyl)piperidin-2-yl)butan-1-one] | – | – | 100 | 100
COc1cc(C)c(S(=O)(=O)N2CCCCC2CCCC(=O)N2CCC(c3cccc(F)c3)(N3CCN(C)CC3)CC2)c(C)c1 (stereo not drawn) [Compound 214, 1-(4-(3-Fluorophenyl)-4-(4-methylpiperazin-1-yl)piperidin-1-yl)-4-(1-(4-methoxy-2,6-dimethylphenylsulfonyl)piperidin-2-yl)butan-1-one] | 99 | 101 | – | –
CN1CCN(C2(c3cccc(F)c3)CCN(C(=O)CCCC3CCCCN3S(=O)(=O)c3cccc4ccccc34)CC2)CC1 (stereo not drawn) [Compound 215, 1-(4-(3-Fluorophenyl)-4-(4-methylpiperazin-1-yl)piperidin-1-yl)-4-(1-(naphthalen-1-ylsulfonyl)piperidin-2-yl)butan-1-one] | – | – | 100 | 100
CN1CCN(C2(c3cccc(F)c3)CCN(C(=O)CCCC3CCCCN3S(=O)(=O)c3ccc4ccccc4c3)CC2)CC1 (stereo not drawn) [Compound 216, 1-(4-(3-Fluorophenyl)-4-(4-methylpiperazin-1-yl)piperidin-1-yl)-4-(1-(naphthalen-2-ylsulfonyl)piperidin-2-yl)butan-1-one] | 100 | 95 | – | –
COc1cc(C)c(S(=O)(=O)N2CCC(OCC(=O)N3CCC(c4cccc(F)c4)(N4CCN(C)CC4)CC3)C2)c(C)c1 (stereo not drawn) [Compound 217, 1-(4-(3-Fluorophenyl)-4-(4-methylpiperazin-1-yl)piperidin-1-yl)-2-(1-(4-methoxy-2,6-dimethylphenylsulfonyl)pyrrolidin-3-yloxy)ethanone] | 100 | 98 | – | –
COc1cc(C)c(S(=O)(=O)N2c3ccccc3OCC2COCC(=O)N2CCC(c3cccc(F)c3)(N3CCN(C)CC3)CC2)c(C)c1 (stereo not drawn) [Compound 221, 1-(4-(3-Fluorophenyl)-4-(4-methylpiperazin-1-yl)piperidin-1-yl)-2-((4-(4-methoxy-2,6-dimethylphenylsulfonyl)-3,4-dihydro-2H-benzo[b][1,4]oxazin-3-yl)methoxy)ethanone] | 99 | 99 | – | –
Cc1cccc(Cl)c1S(=O)(=O)N1c2ccccc2OCC1COCC(=O)N1CCC(c2cccc(F)c2)(N2CCN(C)CC2)CC1 (stereo not drawn) [Compound 222, 2-((4-(2-Chloro-6-methylphenylsulfonyl)-3,4-dihydro-2H-benzo[b][1,4]oxazin-3-yl)methoxy)-1-(4-(3-fluorophenyl)-4-(4-methylpiperazin-1-yl)piperidin-1-yl)ethanone] | 97 | 97 | – | –
CN1CCN(C2(c3cccc(F)c3)CCN(C(=O)COCC3COc4ccccc4N3S(=O)(=O)c3ccccc3C(F)(F)F)CC2)CC1 (stereo not drawn) [Compound 223, 1-(4-(3-Fluorophenyl)-4-(4-methylpiperazin-1-yl)piperidin-1-yl)-2-((4-(2-(trifluoromethyl)phenylsulfonyl)-3,4-dihydro-2H-benzo[b][1,4]oxazin-3-yl)methoxy)ethanone] | 84 | 97 | – | –
CN1CCN(C2(c3cccc(F)c3)CCN(C(=O)COCC3CCCCN3S(=O)(=O)c3ccccc3C(F)(F)F)CC2)CC1 (stereo not drawn) [Compound 225, 1-(4-(3-Fluorophenyl)-4-(4-methylpiperazin-1-yl)piperidin-1-yl)-2-((1-(2-(trifluoromethyl)phenylsulfonyl)piperidin-2-yl)methoxy)ethanone] | – | – | 100 | 101
COc1cc(C)c(S(=O)(=O)N2CCCCC2COCCC(=O)N2CCC(c3cccc(F)c3)(N3CCN(C)CC3)CC2)c(C)c1 (stereo not drawn) [Compound 226, 1-(4-(3-Fluorophenyl)-4-(4-methylpiperazin-1-yl)piperidin-1-yl)-3-((1-(4-methoxy-2,6-dimethylphenylsulfonyl)piperidin-2-yl)methoxy)propan-1-one] | 100 | 100 | – | –
COc1cc(C)c(S(=O)(=O)N2CCCCC2CCOCC(=O)N2CCC(c3cccc(F)c3)(N3CCN(C)CC3)CC2)c(C)c1 (stereo not drawn) [Compound 227, 1-(4-(3-Fluorophenyl)-4-(4-methylpiperazin-1-yl)piperidin-1-yl)-2-(2-(1-(4-methoxy-2,6-dimethylphenylsulfonyl)piperidin-2-yl)ethoxy)ethanone] | 100 | 99 | – | –
CN1CCN(C2(c3cccc(F)c3)CCN(C(=O)COCC3CCc4ccccc4N3S(=O)(=O)c3ccc4ccccc4c3)CC2)CC1 (stereo not drawn) [Compound 228, 1-(4-(3-Fluorophenyl)-4-(4-methylpiperazin-1-yl)piperidin-1-yl)-2-((1-(naphthalen-2-ylsulfonyl)-1,2,3,4-tetrahydroquinolin-2-yl)methoxy)ethanone] | 100 | 101 | – | –
